Source: ChEMBL document CHEMBL1201861, “Genomics of Drug Sensitity in Cancer screening data, Wellcome Trust Sanger Institute”

Columns and labels:
Test in all cases: cells
Assay type in all cases: functional, cell-based, Homo sapiens
COLO-824 = conditions: Homo sapiens, COLO-824
Description: SANGER: Inhibition of human COLO-824 cell growth in a cell viability assay.

NCI-H1838 = conditions: Homo sapiens, NCI-H1838;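 also: growth inhibition of NCI-H1838 cells, determined with a cell viability readout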
Description: SANGER: Inhibition of human NCI-H1838 cell growth in a cell viability assay.

NCI-H510A = conditions: Homo sapiens, NCI-H510A;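 also: growth inhibition of NCI-H510A cells, read out with a cell viability assay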
Description: SANGER: Inhibition of human NCI-H510A cell growth in a cell viability assay.

RPMI-8866 = conditions: Homo sapiens, RPMI-8866
Description: SANGER: Inhibition of human RPMI-8866 cell growth in a cell viability assay.

SW872 = conditions: Homo sapiens, SW872;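 also: growth inhibition of SW872 cells, read out by a viability assay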
Description: SANGER: Inhibition of human SW872 cell growth in a cell viability assay.

NCI-H23 = conditions: Homo sapiens, NCI-H23;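 also: cell viability assay measuring growth inhibition of NCI-H23 cells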
Description: SANGER: Inhibition of human NCI-H23 cell growth in a cell viability assay.

DJM-1 = conditions: Homo sapiens, DJM-1;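 also: growth inhibition of human DJM-1 cells, read out by a cell viability assay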
Description: SANGER: Inhibition of human DJM-1 cell growth in a cell viability assay.

SF-539 = conditions: Homo sapiens, SF-539;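 also: Read-out is a cell viability assay, with IC50 reflecting inhibition of cell growth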
Description: SANGER: Inhibition of human SF539 cell growth in a cell viability assay.

ES7 = conditions: Homo sapiens, ES7;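 also: growth inhibition of cultured human ES7 cells, read out as cell viability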
Description: SANGER: Inhibition of human ES7 cell growth in a cell viability assay.

PSN1 = conditions: Homo sapiens, PSN1;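 also: suppression of growth of human PSN1 cells, read out by a cell viability assay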
Description: SANGER: Inhibition of human PSN1 cell growth in a cell viability assay.

KM-H2 = conditions: Homo sapiens, KM-H2;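 also: growth inhibition of KM-H2 cells, read out by a cell viability assay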
Description: SANGER: Inhibition of human KM-H2 cell growth in a cell viability assay.

LB2518-MEL = conditions: Homo sapiens, LB2518-MEL;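 also: growth inhibition of human LB2518-MEL cells, measured with a cell viability assay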
Description: SANGER: Inhibition of human LB2518-MEL cell growth in a cell viability assay.

BB49-HNC = conditions: Homo sapiens, BB49-HNC;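 also: cell viability assay read-out, reported as inhibition of BB49-HNC cell growth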
Description: SANGER: Inhibition of human BB49-HNC cell growth in a cell viability assay.

BB65-RCC = conditions: Homo sapiens, BB65-RCC;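 also: growth inhibition of the cell line, measured with a cell viability assay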
Description: SANGER: Inhibition of human BB65-RCC cell growth in a cell viability assay.

A3-KAW = conditions: Homo sapiens, A3-KAW;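 also: growth inhibition of human A3-KAW cells, read out with a cell viability assay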
Description: SANGER: Inhibition of human A3-KAW cell growth in a cell viability assay.

MHH-NB-11 = conditions: Homo sapiens, MHH-NB-11;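 also: growth inhibition of human MHH-NB-11 cells, read out by a cell viability assay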
Description: SANGER: Inhibition of human MHH-NB-11 cell growth in a cell viability assay.

Mo = conditions: Homo sapiens, Mo
Description: SANGER: Inhibition of human Mo-T cell growth in a cell viability assay.

HOP-62 = conditions: Homo sapiens, HOP-62;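 also: cell growth inhibition determined with a viability assay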
Description: SANGER: Inhibition of human HOP-62 cell growth in a cell viability assay.

LNCaP-Clone-FGC = conditions: Homo sapiens, LNCaP-Clone-FGC
Description: SANGER: Inhibition of human LNCaP-Clone-FGC cell growth in a cell viability assay.

MPP-89 = conditions: Homo sapiens, MPP-89;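 also: growth inhibition of human MPP-89 cells, read out with a cell viability assay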
Description: SANGER: Inhibition of human MPP-89 cell growth in a cell viability assay.

TE-9 = conditions: Homo sapiens, TE-9;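 also: cell growth inhibition, measured with a cell viability readout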
Description: SANGER: Inhibition of human TE-9 cell growth in a cell viability assay.

LXF-289 cell line = conditions: Homo sapiens, LXF-289
Description: SANGER: Inhibition of human LXF-289 cell growth in a cell viability assay.

OVCAR-4 = conditions: Homo sapiens, OVCAR-4;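 also: growth inhibition of human OVCAR-4 cells, measured with a cell viability assay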
Description: SANGER: Inhibition of human OVCAR-4 cell growth in a cell viability assay.

NB6 = conditions: Homo sapiens, NB6;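 also: growth inhibition of NB6 cells, read out by a cell viability assay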
Description: SANGER: Inhibition of human NB6 cell growth in a cell viability assay.

SK-N-FI = conditions: Homo sapiens, SK-N-FI;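 also: cell viability assay measuring growth inhibition of human SK-N-FI cells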
Description: SANGER: Inhibition of human SK-N-FI cell growth in a cell viability assay.

NCI-H82 = conditions: Homo sapiens, NCI-H82;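 also: growth inhibition of NCI-H82 cells, measured with a cell viability readout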
Description: SANGER: Inhibition of human NCI-H82 cell growth in a cell viability assay.

LU-134-A = conditions: Homo sapiens, LU-134-A
Description: SANGER: Inhibition of human LU-134-A cell growth in a cell viability assay.

LOX IMVI = conditions: Homo sapiens, LOX IMVI
Description: SANGER: Inhibition of human LOXIMVI cell growth in a cell viability assay.

KY821 = conditions: Homo sapiens, KY821;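 also: growth inhibition of human KY821 cells, read out by a cell viability assay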
Description: SANGER: Inhibition of human KY821 cell growth in a cell viability assay.

LB771-HNC = conditions: Homo sapiens, LB771-HNC;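 also: growth inhibition of LB771-HNC human cells, read out with a cell viability assay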
Description: SANGER: Inhibition of human LB771-HNC cell growth in a cell viability assay.

U-266 = conditions: Homo sapiens, U-266
Description: SANGER: Inhibition of human U-266 cell growth in a cell viability assay.

LS-411N = conditions: Homo sapiens, LS-411N
IST-MES1 = conditions: Homo sapiens, IST-MES1;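 also: growth inhibition of IST-MES1 cells, measured with a cell viability assay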
Description: SANGER: Inhibition of human IST-MES1 cell growth in a cell viability assay.

IST-MEL1 = conditions: Homo sapiens, IST-MEL1;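 also: growth inhibition of the cell line, read out with a cell viability assay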
Description: SANGER: Inhibition of human IST-MEL1 cell growth in a cell viability assay.

TE-5 = conditions: Homo sapiens, TE-5;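 also: inhibition of cell growth, read out by a cell viability assay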
Description: SANGER: Inhibition of human TE-5 cell growth in a cell viability assay.

EOL1 = conditions: Homo sapiens, EOL1;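 also: growth inhibition of EoL-1 cells, read out by a cell viability assay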
Description: SANGER: Inhibition of human EoL-1-cell cell growth in a cell viability assay.

TK-10 = conditions: Homo sapiens, TK-10;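 also: growth inhibition of TK-10 cells, read out in a cell viability assay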
Description: SANGER: Inhibition of human TK10 cell growth in a cell viability assay.

EW-16 = conditions: Homo sapiens, EW-16;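 also: growth inhibition of human EW-16 cells, read out as cell viability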
Description: SANGER: Inhibition of human EW-16 cell growth in a cell viability assay.

ES5 = conditions: Homo sapiens, ES5;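 also: growth inhibition of human ES5 cells, read out by a cell viability assay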
Description: SANGER: Inhibition of human ES5 cell growth in a cell viability assay.

GB-1 = conditions: Homo sapiens, GB-1;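 also: growth of GB-1 cells judged by a viability assay, IC50 marks the concentration inhibiting growth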
Description: SANGER: Inhibition of human GB-1 cell growth in a cell viability assay.

KG-1 = conditions: Homo sapiens, KG-1;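 also: growth inhibition of KG-1 cells, read out by a cell viability assay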
Description: SANGER: Inhibition of human KG-1 cell growth in a cell viability assay.

OMC-1 = conditions: Homo sapiens, OMC-1;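 also: growth inhibition of the OMC-1 cell line, measured by a cell viability assay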
Description: SANGER: Inhibition of human OMC-1 cell growth in a cell viability assay.

K5 = conditions: Homo sapiens, K5
Description: SANGER: Inhibition of human K5 cell growth in a cell viability assay.

C8166 = conditions: Homo sapiens, C8166;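 also: growth inhibition of human C8166 cells measured by a cell viability assay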
Description: SANGER: Inhibition of human C8166 cell growth in a cell viability assay.

KNS-42 = conditions: Homo sapiens, KNS-42;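 also: growth inhibition of KNS-42 cells, read out with a cell viability assay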
Description: SANGER: Inhibition of human KNS-42 cell growth in a cell viability assay.

L-363 = conditions: Homo sapiens, L-363
Description: SANGER: Inhibition of human L-363 cell growth in a cell viability assay.

SJSA-1 = conditions: Homo sapiens, SJSA-1;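 also: growth inhibition of human SJSA-1 cells, read out through a cell viability measurement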
Description: SANGER: Inhibition of human SJSA-1 cell growth in a cell viability assay.

KNS-81-FD = conditions: Homo sapiens, KNS-81-FD;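 also: growth inhibition of KNS-81-FD cells, read out with a cell viability assay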
Description: SANGER: Inhibition of human KNS-81-FD cell growth in a cell viability assay.

MZ2-MEL = conditions: Homo sapiens, MZ2-MEL;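 also: growth inhibition of MZ2-MEL cells read out with a cell viability assay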
Description: SANGER: Inhibition of human MZ2-MEL cell growth in a cell viability assay.

SMILES: CC(=O)O[C@H]1C(=O)[C@@]2(C)[C@H]([C@H](OC(=O)c3ccccc3)[C@]3(O)C[C@H](OC(=O)[C@H](O)[C@@H](NC(=O)c4ccccc4)c4ccccc4)C(C)=C1C3(C)C)[C@]1(OC(C)=O)CO[C@@H]1C[C@@H]2O [PACLITAXEL]
- IC50 (COLO-824): > 102 nM
- IC50 (NCI-H1838): > 102 nM
- IC50 (NCI-H510A): 6.65 nM
- IC50 (RPMI-8866): 57.1 nM
- IC50 (SW872): 42.1 nM
- IC50 (NCI-H23): > 102 nM
- IC50 (DJM-1): 5.3 nM
- IC50 (SF-539): 24 nM
- IC50 (ES7): > 102 nM
- IC50 (PSN1): 1.3 nM
- IC50 (KM-H2): 33.1 nM
- IC50 (LB2518-MEL): 81.4 nM
- IC50 (BB49-HNC): > 102 nM
- IC50 (BB65-RCC): 25.3 nM
- IC50 (A3-KAW): 73.5 nM
- IC50 (MHH-NB-11): > 102 nM
- IC50 (Mo): > 102 nM
- IC50 (HOP-62): 12.8 nM
- IC50 (LNCaP-Clone-FGC): > 102 nM
- IC50 (MPP-89): > 102 nM
- IC50 (TE-9): 3.26 nM
- IC50 (LXF-289 cell line): 8.18 nM
- IC50 (OVCAR-4): 9.04 nM
- IC50 (NB6): > 102 nM
- IC50 (SK-N-FI): > 102 nM
- IC50 (NCI-H82): 43.1 nM
- IC50 (LU-134-A): 47.7 nM
- IC50 (LOX IMVI): 70.3 nM
- IC50 (KY821): 27 nM
- IC50 (LB771-HNC): 25.3 nM
- IC50 (U-266): > 102 nM
- IC50 (LS-411N): 7.17 nM
- IC50 (IST-MES1): 79.1 nM
- IC50 (IST-MEL1): 26.2 nM
- IC50 (TE-5): 15 nM
- IC50 (EOL1): 26.9 nM
- IC50 (TK-10): 33.6 nM
- IC50 (EW-16): 6.94 nM
- IC50 (ES5): > 102 nM
- IC50 (GB-1): 36 nM
- IC50 (KG-1): > 102 nM
- IC50 (OMC-1): > 102 nM
- IC50 (K5): 72.3 nM
- IC50 (C8166): > 102 nM
- IC50 (KNS-42): 8.91 nM
- IC50 (L-363): 13.5 nM
- IC50 (SJSA-1): 17.7 nM
- IC50 (KNS-81-FD): > 102 nM
- IC50 (MZ2-MEL): 47.4 nM

SMILES: Cc1cn(-c2cc(NC(=O)c3ccc(C)c(Nc4nccc(-c5cccnc5)n4)c3)cc(C(F)(F)F)c2)cn1 [NILOTINIB]
- IC50 (COLO-824): > 2000 nM
- IC50 (NCI-H1838): > 2000 nM
- IC50 (NCI-H510A): > 2000 nM
- IC50 (RPMI-8866): > 2000 nM
- IC50 (SW872): > 2000 nM
- IC50 (NCI-H23): > 2000 nM
- IC50 (DJM-1): > 2000 nM
- IC50 (SF-539): > 2000 nM
- IC50 (ES7): > 2000 nM
- IC50 (PSN1): > 2000 nM
- IC50 (KM-H2): > 2000 nM
- IC50 (LB2518-MEL): > 2000 nM
- IC50 (BB49-HNC): > 2000 nM
- IC50 (BB65-RCC): > 2000 nM
- IC50 (A3-KAW): > 2000 nM
- IC50 (MHH-NB-11): > 2000 nM
- IC50 (Mo): > 2000 nM
- IC50 (HOP-62): 1820 nM
- IC50 (LNCaP-Clone-FGC): > 2000 nM
- IC50 (MPP-89): > 2000 nM
- IC50 (TE-9): > 2000 nM
- IC50 (LXF-289 cell line): > 2000 nM
- IC50 (OVCAR-4): > 2000 nM
- IC50 (NB6): > 2000 nM
- IC50 (SK-N-FI): > 2000 nM
- IC50 (NCI-H82): > 2000 nM
- IC50 (LU-134-A): > 2000 nM
- IC50 (LOX IMVI): > 2000 nM
- IC50 (KY821): > 2000 nM
- IC50 (LB771-HNC): > 2000 nM
- IC50 (U-266): > 2000 nM
- IC50 (LS-411N): > 2000 nM
- IC50 (IST-MES1): > 2000 nM
- IC50 (IST-MEL1): > 2000 nM
- IC50 (TE-5): > 2000 nM
- IC50 (EOL1): < 7.81 nM
- IC50 (TK-10): > 2000 nM
- IC50 (EW-16): > 2000 nM
- IC50 (ES5): > 2000 nM
- IC50 (GB-1): > 2000 nM
- IC50 (KG-1): > 2000 nM
- IC50 (OMC-1): > 2000 nM
- IC50 (K5): > 2000 nM
- IC50 (C8166): > 2000 nM
- IC50 (KNS-42): > 2000 nM
- IC50 (L-363): > 2000 nM
- IC50 (SJSA-1): > 2000 nM
- IC50 (KNS-81-FD): > 2000 nM
- IC50 (MZ2-MEL): > 2000 nM
